Reference: PubChem BioAssay (NCI)
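Assay format: 96-well plates, 48-hour exposure. The concentration for full growth arrest is given as TGI.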

Columns and labels:
Test in all cases: growth of human tumour cells (NCI), 48 h
786-0 renal = test system: 786-0 renal
A549 NSCLC = test system: A549 NSCLC
CAKI-1 renal = test system: CAKI-1 renal
COLO 205 colon = test system: COLO 205 colon
DMS 114 small cell lung = test system: DMS 114 small cell lung
HCC-2998 colon = test system: HCC-2998 colon
HL-60(TB) leukemia = test system: HL-60(TB) leukemia
K-562 leukemia = test system: K-562 leukemia
LOX IMVI melanoma = test system: LOX IMVI melanoma
NCI-H226 lung = test system: NCI-H226 lung
SK-MEL-28 melanoma = test system: SK-MEL-28 melanoma
SW-620 colon = test system: SW-620 colon
UACC-62 melanoma = test system: UACC-62 melanoma
HOP-92 NSCLC = test system: HOP-92 NSCLC
OVCAR-5 ovarian = test system: OVCAR-5 ovarian
BT-549 breast = test system: BT-549 breast
MCF7 breast = test system: MCF7 breast
MDA-MB-231 breast = test system: MDA-MB-231 breast
MDA-N = test system: MDA-N
T-47D breast = test system: T-47D breast

SMILES | TGI (786-0 renal) [µM] | TGI (A549 NSCLC) [µM] | TGI (CAKI-1 renal) [µM] | TGI (COLO 205 colon) [µM] | TGI (DMS 114 small cell lung) [µM] | TGI (HCC-2998 colon) [µM] | TGI (HL-60(TB) leukemia) [µM] | TGI (K-562 leukemia) [µM] | TGI (LOX IMVI melanoma) [µM] | TGI (NCI-H226 lung) [µM] | TGI (SK-MEL-28 melanoma) [µM] | TGI (SW-620 colon) [µM] | TGI (UACC-62 melanoma) [µM] | TGI (HOP-92 NSCLC) [µM] | TGI (OVCAR-5 ovarian) [µM] | TGI (BT-549 breast) [µM] | TGI (MCF7 breast) [µM] | TGI (MDA-MB-231 breast) [µM] | TGI (MDA-N) [µM] | TGI (T-47D breast) [µM]
N#CC1CCCCC1NC1(C#N)CCCCC1 (stereo unspecified) | > 100 | > 100 | > 100 | > 100 | > 100 | > 100 | > 100 | > 100 | > 100 | > 100 | > 100 | > 100 | > 100 | – | – | – | – | – | – | –
CCOC(=O)CC(NCc1ccc(N=Cc2nc3ccc(C(F)(F)F)cc3nc2-c2ccccc2)cc1)C(=O)OCC (stereo unspecified) | > 100 | > 100 | > 100 | > 100 | > 100 | > 100 | > 100 | > 100 | > 100 | > 100 | > 100 | > 100 | 68.3 | > 100 | > 100 | – | – | – | – | –
COC(=O)C(Cc1nc2ccccc2[nH]c1=O)C(=O)C(=O)Nc1ccc(F)cc1 (stereo unspecified) | 58.8 | > 100 | > 100 | > 100 | 80.7 | > 100 | > 100 | – | > 100 | > 100 | 89.1 | 42.8 | 67.8 | 56.4 | – | – | – | – | – | –
O=C1CSC(c2ccccc2O)N1c1nc2cc3sc(N4C(=O)CSC4c4ccccc4O)nc3cc2s1 (stereo unspecified) | > 100 | > 100 | > 100 | > 100 | – | > 100 | > 100 | > 100 | > 100 | > 88.1 | > 100 | > 100 | > 100 | > 100 | > 100 | > 100 | > 100 | > 100 | > 100 | > 100
NCCNCCCNC(=O)c1cc(-c2ccccc2)nc2ccccc12 | 61.8 | > 100 | > 100 | 30.9 | – | 34.4 | > 100 | 54.9 | > 100 | > 100 | 33 | > 100 | 46.3 | 55.4 | > 100 | > 100 | > 100 | > 100 | 66.8 | > 100
Cc1ccc2nc3c(C)cc(=O)cc-3sc2c1 | 35.4 | 54.6 | 37.4 | 72.2 | 45.5 | 70.9 | 25.2 | 31.5 | – | > 100 | 73 | 31.1 | 29 | 76.7 | 61 | – | – | – | – | –
CSc1nc2nc(C(O)C(O)C(O)CO)cnc2c(=O)[nH]1 (stereo unspecified) | > 100 | > 100 | > 100 | > 100 | > 100 | > 100 | > 100 | – | > 100 | > 100 | > 100 | > 100 | > 100 | – | > 100 | – | – | – | – | –
